Reference: patent publication US10544136B2, “Modulators of sphingosine phosphate receptors” (The Scripps Research Institute, priority 2008, dated 2020)
pEC50: −log10 of the molar value. Where two headings read alike, the source gives them in different places.

Target: S1P1 (Homo sapiens (Human), UniProt P21453)
Assay: S1P1 agonist assay (Ec50 S1P1Ag)
Format: cell-based
Settings: for EC50: unit μM/uM
Excerpt: The exact dosage will depend upon the activity of the compound, mode of administration, on the therapy desired, form in which administered, the subject to be treated and the body weight of the subject to be treated, and the preference and experience of the physician or veterinarian in charge. S1P1 agonist bioactivity of the compounds of the invention can be determined by use of an in vitro assay system which measures the activation of S1P1, which can be expressed as EC50 values, as are well known in the art inhibitors of the invention can be determined by the method described in the Examples.

S1P1, sequence (P21453 whole entry): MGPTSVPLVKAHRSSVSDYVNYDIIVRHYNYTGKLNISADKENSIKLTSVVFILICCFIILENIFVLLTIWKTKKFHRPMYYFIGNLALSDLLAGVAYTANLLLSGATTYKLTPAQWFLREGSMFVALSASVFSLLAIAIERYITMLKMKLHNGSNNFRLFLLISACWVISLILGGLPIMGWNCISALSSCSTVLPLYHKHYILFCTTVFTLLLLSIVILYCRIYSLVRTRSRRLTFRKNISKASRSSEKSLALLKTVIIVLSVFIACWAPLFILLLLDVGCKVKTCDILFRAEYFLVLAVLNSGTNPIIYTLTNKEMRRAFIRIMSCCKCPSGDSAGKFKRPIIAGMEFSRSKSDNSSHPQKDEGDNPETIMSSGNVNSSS

Compound | pEC50 | EC50 [µM]
4-(5-(4-isopropoxy-3-(trifluoromethyl)phenyl)-1,2,4-oxadiazol-3-yl)-2,3-dihydro-1H-inden-1-ol [Compound 261] | > 9.30 | –
COc1cc(-c2nc(-c3ccc(C(F)(F)F)cc3)no2)ccn1 [Compound 1] | – | 466
FC(F)(F)c1ccc(-c2noc(-c3cccnc3)n2)cc1 [Compound 2] | – | 6.5
[O-][n+]1ccc(-c2nc(-c3ccc(C(F)(F)F)cc3)no2)cc1 [Compound 3] | – | 5.9
FC(F)(F)c1ccc(-c2noc(-c3ccnnc3)n2)cc1 [Compound 4] | – | 7.8
Fc1cc(-c2nc(-c3ccc(C(F)(F)F)cc3)no2)ccn1 [Compound 6] | – | 4.1
COc1ccc(-c2nc(-c3ccccc3)no2)cc1 [Compound 8] | – | 73
CC(C)COc1ccc(-c2nc(-c3ccncc3)no2)cc1 [Compound 9] | – | 68.4
COc1cc(OC)c(-c2nc(-c3ccncc3)no2)cc1OC [Compound 11] | 5.19 | –
CC(C)(C)c1cc(-c2nc(-c3ccc(S(N)(=O)=O)cc3)no2)cc(C(C)(C)C)c1 [Compound 14] | – | 12.3
Nc1cc(-c2nc(-c3ccc(S(N)(=O)=O)cc3)no2)ccn1 [Compound 18] | 6.40 | –
COc1cc(-c2nc(-c3ccc(S(N)(=O)=O)cc3)no2)ccn1 [Compound 19] | – | 12
NS(=O)(=O)c1ccc(-c2noc(-c3cc(Cl)nc(Cl)c3)n2)cc1 [Compound 22] | 5.99 | –
COc1cc(-c2noc(-c3cccnc3)n2)ccc1C [Compound 24] | 5.74 | –
COc1cc(-c2noc(-c3cc(C)nc(Cl)c3)n2)ccc1C [Compound 28] | 6.32 | –
COc1cc(-c2noc(-c3ccnc(Cl)c3)n2)ccc1C [Compound 29] | 6.24 | –
COc1cc(-c2noc(-c3cc(CC(C)C)no3)n2)ccc1C [Compound 30] | 5.86 | –
CCOc1ccc(-c2nc(-c3ccccn3)no2)cc1OCC [Compound 33] | 6.94 | –
CCOc1cccc(-c2nc(-c3ccncc3)no2)c1 [Compound 38] | 6.03 | –
COc1cc(-c2nc(-c3ccncc3)no2)ccc1C [Compound 39] | 6.38 | –
COc1cc(-c2nc(-c3ccc(C)c(OC)c3)no2)ccn1 [Compound 40] | 6.21 | –
COc1cc(-c2noc(-c3ccnnc3)n2)ccc1C [Compound 41] | 5.11 | –
COc1cc(-c2noc(Cc3ccncc3)n2)ccc1C [Compound 42] | 6.04 | –

Compound | pEC50 | EC50 [µM]
COc1cc(-c2noc(-c3ccncc3)n2)ccc1C [Compound 44] | 6.14 | –
COc1cc(-c2noc(-c3cc(Cl)nc(Cl)c3)n2)ccc1C [Compound 45] | 5.83 | –
COc1cc(-c2noc(-c3ccc(C#N)c(C)c3)n2)ccc1C [Compound 46] | 6.26 | –
COc1cc(-c2noc(-c3cc4ccccc4s3)n2)ccc1C [Compound 47] | – | 31.8
CCn1nc(C)cc1-c1nc(-c2ccc(C)c(OC)c2)no1 [Compound 48] | 6.53 | –
Cc1ccc(-c2nc(-c3ccncc3)no2)cc1C(F)(F)F [Compound 49] | 6.31 | –
CCCCc1ccc(-c2nc(-c3ccncc3)no2)cc1 [Compound 51] | 6.07 | –
c1cc(-c2noc(-c3ccc(C4CCCCC4)cc3)n2)ccn1 [Compound 56] | 7.08 | –
CCn1nc(C)cc1-c1nc(-c2ccncc2)no1 [Compound 57] | 6.54 | –
FC(F)(F)c1cc(-c2nc(-c3cccnc3)no2)ccc1-c1ccccc1 [Compound 63] | 6.89 | –
CCOc1cccc(-c2nc(-c3ccncc3C)no2)c1 [Compound 64] | 6.64 | –
CCOc1cccc(-c2nc(-c3ccnc(N)c3)no2)c1 [Compound 65] | 6.50 | –
CCOc1cccc(-c2nc(-c3cncc(C)c3)no2)c1 [Compound 66] | 5.70 | –
CCOc1cccc(-c2nc(-c3cccnc3)no2)c1 [Compound 67] | – | 95.5
Cc1cnccc1-c1noc(-c2ccc(C)c(C(F)(F)F)c2)n1 [Compound 68] | 7.42 | –
Cc1ccc(-c2nc(-c3ccnc(N)c3)no2)cc1C(F)(F)F [Compound 69] | 6.71 | –
Cc1cc(-c2noc(-c3ccc(C)c(C(F)(F)F)c3)n2)ccn1 [Compound 70] | – | 7.08
COc1cc(-c2nc(-c3cncc(C)c3)no2)ccc1C [Compound 74] | 6.22 | –
COc1cc(-c2nc(-c3cccnc3)no2)ccc1C [Compound 75] | 6.56 | –
CCOc1ccc(-c2nc(-c3cccc(CN4CCCC4)c3)no2)cc1OCC [Compound 77] | 6.35 | –
CCOc1ccc(-c2nc(-c3cccc(CN(C)C)c3)no2)cc1OCC [Compound 78] | 7.34 | –
CCOc1ccc(-c2nc(-c3ccc(CN4CCCC4)cc3)no2)cc1OCC [Compound 80] | 7.06 | –
CCOc1ccc(-c2nc(-c3ccc(CN(C)C)cc3)no2)cc1OCC [Compound 81] | 6.91 | –

Compound | pEC50 | EC50 [µM]
FC(F)(F)c1cc(-c2nc(-c3ccc(CN4CCCC4)cc3)no2)ccc1-c1ccccc1 [Compound 82] | 7.32 | –
CCOc1ccc(-c2nnc(-c3ccncc3)o2)cc1OCC [Compound 89] | 6.65 | –
CCOc1ccc(-c2nnc(-c3ccncc3)[nH]2)cc1OCC [Compound 93] | 5.55 | –
CCOc1ccc(-c2nc(-c3ccc(N4CCN(C)CC4)cc3C)no2)cc1OCC [Compound 100] | 7.06 | –
c1ccc(Cc2nc(-c3ccncc3)no2)cc1 [Compound 105] | 5.08 | –
CCC(c1ccccc1)c1nc(-c2ccncc2)no1 (centres unmarked) [Compound 109] | 5.82 | –
CCOc1ccc(-c2nc(-c3cccc(Br)c3C)no2)cc1OCC [Compound 121] | 6.19 | –
CCOc1ccc(-c2nc(-c3ccc(C#N)cc3C)no2)cc1OCC [Compound 122] | 8.30 | –
CCOc1ccc(-c2nc(-c3ccc4cc[nH]c4c3)no2)cc1OCC [Compound 124] | 8.52 | –
CCOc1ccc(-c2nc(-c3ccc(CN4CCCC4)cc3C)no2)cc1OCC [Compound 125] | 6.77 | –
CCOc1ccc(-c2nc(-c3ccc(CN(C)C)cc3C)no2)cc1OCC [Compound 128] | 7.72 | –
CCOc1ccc(-c2nc(-c3ccc4c(c3)NCC4)no2)cc1OCC [Compound 150] | 8.38 | –
CCOc1ccc(-c2nc(-c3ccc4c(c3)NC(=O)C4)no2)cc1OCC [Compound 155] | 8.77 | –
CCOc1ccc(-c2nc(-c3cccc(N)c3C)no2)cc1OCC [Compound 165] | 7.53 | –
CCOc1ccc(-c2nc(-c3cccc(C)c3C)no2)cc1OCC [Compound 166] | 7.90 | –
CCOc1ccc(-c2nc(-c3ccc(C4=NCCN4)cc3)no2)cc1OCC [Compound 181] | 6.13 | –
CCOc1ccc(-c2nc(-c3ccc(Br)c(C)c3)no2)cc1OCC [Compound 185] | 6.61 | –
CCOc1ccc(-c2nc(-c3ccc(CCN4CCCC4)cc3)no2)cc1OCC [Compound 191] | 7.27 | –
CCOc1ccc(-c2nc(-c3ccc(CO)c(C)c3)no2)cc1OCC [Compound 200] | 6.98 | –
CCOc1ccc(-c2nc(-c3ccc(CN4CCCC4)c(C)c3)no2)cc1OCC [Compound 202] | 7.45 | –
CCOc1ccc(-c2nc(-c3cccc4[nH]cc(CNCCN(CC)CC)c34)no2)cc1OCC [Compound 204] | 7.49 | –
CCOc1ccc(-c2nc(-c3cccc(OC(F)(F)F)c3)no2)cc1OCC [Compound 205] | – | 10
CCOc1ccc(-c2nc(-c3ccc(OC(F)(F)F)cc3)no2)cc1OCC [Compound 206] | < 5.30 | –

Compound | pEC50 | EC50 [µM]
CCOc1ccc(-c2nc(-c3cc4ccccc4cn3)no2)cc1OCC [Compound 208] | 6.81 | –
CCOc1ccc(-c2nc(-c3ccc(CN4C[C@H](O)C[C@H]4C(=O)N(C)C)cc3C)no2)cc1OCC [Compound 210] | 6.79 | –
CCOc1ccc(-c2nc(-c3ccc4ccccc4c3)no2)cc1OCC [Compound 212] | 6.47 | –
CCOc1ccc(-c2nc(-c3cccc4[nH]cc(CNC(C)(C)CO)c34)no2)cc1OCC [Compound 213] | 6.20 | –
CCOc1ccc(-c2nc(-c3cccc4c3CCC4O)no2)cc1OCC (centres unmarked) [Compound 215, 4-(5-(3,4-diethoxyphenyl)-1,2,4-oxadiazol-3-yl)-2,3-dihydro-1H-inden-1-ol] | 10.00 | –
CCOc1ccc(-c2nc(-c3cccc4c3CCC4NC(C)(C)CO)no2)cc1OCC (centres unmarked) [Compound 216] | 7.04 | –
CCOc1ccc(-c2nc(-c3ccnc(CNC(C)(C)CO)c3)no2)cc1OCC [Compound 218] | 6.88 | –
CCOc1ccc(-c2nc(-c3nccc4ccccc34)no2)cc1OCC [Compound 219] | 7.89 | –
CCOc1ccc(-c2nc(-c3cncc(C(=O)OC)c3)no2)cc1OCC [Compound 220] | 7.55 | –
CCOc1ccc(-c2nc(-c3cccc4[nH]cc(CN(C)CCO)c34)no2)cc1OCC [Compound 221] | 5.85 | –
CCOc1ccc(-c2nc(-c3cccc4[nH]cc(CNCCN(C)C)c34)no2)cc1OCC [Compound 222] | 6.55 | –
CCOc1ccc(-c2nc(-c3ccc4[nH]cc(CN5CCCC5)c4c3)no2)cc1OCC [Compound 223] | – | 10
CCOc1ccc(-c2nc(-c3ccc4[nH]cc(CNCCN(CC)CC)c4c3)no2)cc1OCC [Compound 224] | 6.31 | –
CCOc1ccc(-c2nc(-c3cncc(CO)c3)no2)cc1OCC [Compound 225] | 7.61 | –
CCOc1ccc(-c2nc(-c3ccnc(CNCCN(CC)CC)c3)no2)cc1OCC [Compound 226] | 8.57 | –
CCOc1ccc(-c2nc(-c3cccc4c3CCC4=O)no2)cc1OCC [Compound 227] | 7.67 | –
CCOc1ccc(-c2nc(-c3cccc4[nH]cc(CN5CC[C@H](O)C5)c34)no2)cc1OCC [Compound 230] | 6.52 | –
CCOc1ccc(-c2nc(-c3cccc4[nH]cc(CN5CC[C@@H](O)C5)c34)no2)cc1OCC [Compound 231] | 6.92 | –
CCOc1ccc(-c2nc(-c3cccc4c3CCN4CCN(CC)CC)no2)cc1OCC [Compound 232] | 7.03 | –
CCOc1ccc(-c2nc(-c3cccc4[nH]cc(CNC)c34)no2)cc1OCC [Compound 233] | 6.24 | –
